# Calls of active or inactive are those of the source.
# Assays:
# [1] = Luminescent dose response cell-based high throughput screening assay for inhibitors of the Janus kinase 2 mutant JAK2V617F. [Related pubchem assays: 1446 (Primary screen.), 1521 (Confirmation assay.), 1486 (Counter screen.)]; type: functional
# Cytochrome P450 2C9 = Cytochrome P450 2C9 (Homo sapiens, UniProt P11712)
# [2] = target: Neurotensin receptor type 1 (Homo sapiens, UniProt P30989); type: functional;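 also: Image-based confirmatory dose-response assay measuring agonist activity at NTR1; NTR1-expressing U2OS osteosarcoma cells imaged for beta-arrestin GFP spot formation; agonist potency where compounds increase beta-arrestin recruitment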
# [3] = target: T1, Microphthalmia-associated transcription factor (Homo sapiens, UniProt O75030); experiment: TRPM1 promoter luciferase signal decrease, dose response, MITF inhibitor project, cell-based, SK-MEL-5, cherry-picked, set 3 (AID 493073); type: functional
# T1 sequence (O75030 whole entry): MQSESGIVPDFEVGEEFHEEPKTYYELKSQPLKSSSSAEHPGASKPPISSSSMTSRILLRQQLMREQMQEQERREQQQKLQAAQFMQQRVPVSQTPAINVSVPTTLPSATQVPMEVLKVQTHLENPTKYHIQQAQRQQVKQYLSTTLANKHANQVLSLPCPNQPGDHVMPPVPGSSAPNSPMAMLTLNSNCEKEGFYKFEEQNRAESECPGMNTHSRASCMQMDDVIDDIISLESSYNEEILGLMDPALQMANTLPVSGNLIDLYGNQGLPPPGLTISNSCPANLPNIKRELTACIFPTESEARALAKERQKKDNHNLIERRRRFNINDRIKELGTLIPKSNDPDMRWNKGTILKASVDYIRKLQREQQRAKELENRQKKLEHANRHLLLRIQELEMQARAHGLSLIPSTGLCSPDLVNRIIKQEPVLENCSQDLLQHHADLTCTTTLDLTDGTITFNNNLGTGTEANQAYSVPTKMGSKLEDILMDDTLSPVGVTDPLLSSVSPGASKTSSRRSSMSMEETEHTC
# [4] = cytotoxicity toward DRD oncogenic fibroblasts, dose response, cell-based, non-viral oncogenic, luminescence (AID 1934); type: functional; details: Homo sapiens
# BJ [5] = experiment: cytotoxicity toward BJ-TERT-LT-ST fibroblasts, dose response, cell-based, RAS-independent, luminescence (AID 1935); type: functional; details: Homo sapiens;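 also: BJ fibroblasts immortalized with TERT plus LT and ST oncogenes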
# [6] = Vero E6 cell cytotoxicity, dose response, cytotoxicity control for non-replicating M. tuberculosis project, secondary assay (AID 492998); type: functional, VeroE6; details: Vero C1008
# [7] = Luminescence Cell-Based Dose Retest to Confirm Inhibitors of Cancer Stem Cells. [Related pubchem assays (depositor defined):AID2717, AID2721]; type: functional, Homo sapiens; details: Homo sapiens
# BJ [8] = experiment: cytotoxicity toward BJ-TERT fibroblasts, dose response, cell-based, RAS-independent, luminescence (AID 1933); type: functional; details: Homo sapiens
# BJ [9] = experiment: cells; type: functional, cell-based; details: Homo sapiens
# cells = type: functional
# [10] = THP-1 cell cytotoxicity, dose response, cytotoxicity control for non-replicating M. tuberculosis project (AID 489025); type: functional
# [11] = Cytotoxicity screening for potential Inhibitors of Bacterial Capsule Biogenesis. [Related pubchem assays (depositor defined):AID488970]; type: functional
# Protein skinhead-1 = target: T2, Protein skinhead-1 (Caenorhabditis elegans, UniProt P34707); type: functional
# T2 sequence (P34707 whole entry): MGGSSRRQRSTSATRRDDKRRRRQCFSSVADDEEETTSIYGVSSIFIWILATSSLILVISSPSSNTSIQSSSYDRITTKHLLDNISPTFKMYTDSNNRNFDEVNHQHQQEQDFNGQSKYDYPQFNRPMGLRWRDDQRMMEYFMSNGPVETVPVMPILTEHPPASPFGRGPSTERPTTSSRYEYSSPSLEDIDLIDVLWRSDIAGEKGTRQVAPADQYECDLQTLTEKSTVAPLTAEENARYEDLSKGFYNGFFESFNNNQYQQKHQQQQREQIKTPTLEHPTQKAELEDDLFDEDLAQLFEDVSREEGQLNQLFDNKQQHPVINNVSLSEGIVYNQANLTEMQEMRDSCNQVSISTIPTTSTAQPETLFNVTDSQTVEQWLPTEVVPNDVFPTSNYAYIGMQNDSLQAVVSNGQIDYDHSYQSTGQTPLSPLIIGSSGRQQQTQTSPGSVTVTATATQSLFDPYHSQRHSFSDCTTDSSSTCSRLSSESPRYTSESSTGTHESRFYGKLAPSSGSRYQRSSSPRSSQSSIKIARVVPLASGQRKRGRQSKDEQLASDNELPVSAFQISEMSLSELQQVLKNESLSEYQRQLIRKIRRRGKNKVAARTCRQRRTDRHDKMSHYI
# [12] = target: Nucleotide-binding oligomerization domain-containing protein 2 (Homo sapiens, UniProt Q9HC29); experiment: PubChem AID 2334; type: functional
# HEK293 [13] = experiment: cells; details: Homo sapiens
# [14] = A549 cell cytotoxicity, dose response, cytotoxicity control, plate reader, cherry-pick, antagonist series (AID 743412); type: functional, cell-based
# [15] = LGR2 antagonists, dose response, cell-based, HEK293, CRE-luciferase reporter, cherry pick, set 2 (AID 743343); type: functional;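 also: transfected cells were stimulated with diluted bursicon conditioned medium after compound addition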
# [16] = growth suppression of beta-catenin-knockout colon cells, dose response, cell-based, HCT116, human colon tumor (AID 1045); type: functional;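 also: HCT116 colon tumor cells with beta catenin knocked out; cells exposed to compound for 60 hours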
# [17] = growth suppression of PTEN-null colon cells, dose response, cell-based, HCT116 PTEN knockout (AID 1047); type: functional;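 also: HCT116 colon tumor cells with PTEN knocked out; cells exposed to compound for 60 hours before readout; potency for loss of cell viability measured by luminescence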
# [18] = target: T3, Nucleotide-binding oligomerization domain-containing protein 1 (Homo sapiens, UniProt Q9Y239); experiment: NOD1 signaling inhibitors, SAR follow-up, revised (AID 2333); type: functional
# T3 sequence (Q9Y239 whole entry): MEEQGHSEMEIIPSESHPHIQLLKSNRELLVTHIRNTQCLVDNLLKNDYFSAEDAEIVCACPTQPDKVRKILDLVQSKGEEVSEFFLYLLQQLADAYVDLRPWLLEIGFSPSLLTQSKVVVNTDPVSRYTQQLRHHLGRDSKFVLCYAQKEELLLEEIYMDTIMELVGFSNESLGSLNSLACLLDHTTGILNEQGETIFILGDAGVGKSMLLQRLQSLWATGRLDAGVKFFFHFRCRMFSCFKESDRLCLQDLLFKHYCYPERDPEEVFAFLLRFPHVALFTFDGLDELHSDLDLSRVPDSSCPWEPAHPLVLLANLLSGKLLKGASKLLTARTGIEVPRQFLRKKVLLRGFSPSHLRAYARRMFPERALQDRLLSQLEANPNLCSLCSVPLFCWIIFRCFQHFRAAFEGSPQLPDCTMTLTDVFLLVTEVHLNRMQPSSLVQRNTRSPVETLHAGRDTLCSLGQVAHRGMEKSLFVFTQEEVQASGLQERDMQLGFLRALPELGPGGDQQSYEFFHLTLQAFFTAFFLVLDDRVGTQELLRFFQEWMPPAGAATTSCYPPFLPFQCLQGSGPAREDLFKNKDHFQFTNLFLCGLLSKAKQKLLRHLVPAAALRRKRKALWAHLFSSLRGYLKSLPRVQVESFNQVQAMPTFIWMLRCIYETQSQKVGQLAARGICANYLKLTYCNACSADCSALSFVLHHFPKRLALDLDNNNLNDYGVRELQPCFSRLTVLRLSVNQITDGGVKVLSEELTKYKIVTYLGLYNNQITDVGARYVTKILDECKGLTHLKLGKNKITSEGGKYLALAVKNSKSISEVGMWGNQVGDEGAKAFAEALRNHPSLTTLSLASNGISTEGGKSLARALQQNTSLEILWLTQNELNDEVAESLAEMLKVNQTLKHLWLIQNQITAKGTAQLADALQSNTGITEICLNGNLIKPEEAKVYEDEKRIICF
# [19] = MC4R antagonists, dose response, counter-screen for LGR2 antagonist project, cell-based, plate reader, cherry pick (AID 743444); type: functional;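 also: transfected HEK 293 cells stimulated with alpha-MSH peptide; potency of inhibitors of the alpha-MSH evoked signal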
# Tumor necrosis factor = Tumor necrosis factor (Homo sapiens, UniProt P01375); experiment: TNFa-triggered NF-kB activation inhibitors, SAR follow-up, cell-based, revised (AID 2337); type: functional
# [20] = cytotoxicity in KRAS-transformed pancreatic duct cells, primary screen, cell-based, fluorescence, HTS (AID 431); type: functional; details: Homo sapiens;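 also: cell line used: HPDE-C7K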
# [21] = cytotoxicity in HPDE-C7 cells, cell-based, fluorescence, HTS (AID 430); type: functional; details: Homo sapiens
# HEK293 [22] = experiment: NOD1 signaling inhibitors, primary screen, cell-based, luminescence, uHTS (AID 1578); type: functional; details: Homo sapiens
# HEK293 [23] = experiment: NOD2 signaling inhibitors in MDP-stimulated cells, cell-based, uHTS, luminescence (AID 2001); type: functional; details: Homo sapiens
# HEK293 [24] = experiment: cells; type: functional, cell-based; details: Homo sapiens
# HEK293 [25] = experiment: cells; type: functional, cell-based; details: Homo sapiens; remark: listed apart in the source
# Neurotensin receptor type 1, sequence (P30989 whole entry): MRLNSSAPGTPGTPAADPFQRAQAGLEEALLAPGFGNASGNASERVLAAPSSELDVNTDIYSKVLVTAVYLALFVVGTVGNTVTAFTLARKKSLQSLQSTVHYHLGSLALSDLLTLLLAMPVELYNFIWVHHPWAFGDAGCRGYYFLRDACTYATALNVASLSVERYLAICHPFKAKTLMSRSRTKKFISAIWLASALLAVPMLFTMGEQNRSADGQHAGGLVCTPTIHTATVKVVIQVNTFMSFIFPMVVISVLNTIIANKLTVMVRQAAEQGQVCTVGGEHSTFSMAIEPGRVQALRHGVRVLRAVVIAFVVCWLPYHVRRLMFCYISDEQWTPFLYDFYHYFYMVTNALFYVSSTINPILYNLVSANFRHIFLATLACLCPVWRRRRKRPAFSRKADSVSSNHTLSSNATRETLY
# Nucleotide-binding oligomerization domain-containing protein 2, sequence (Q9HC29 whole entry, the tested form may be a part): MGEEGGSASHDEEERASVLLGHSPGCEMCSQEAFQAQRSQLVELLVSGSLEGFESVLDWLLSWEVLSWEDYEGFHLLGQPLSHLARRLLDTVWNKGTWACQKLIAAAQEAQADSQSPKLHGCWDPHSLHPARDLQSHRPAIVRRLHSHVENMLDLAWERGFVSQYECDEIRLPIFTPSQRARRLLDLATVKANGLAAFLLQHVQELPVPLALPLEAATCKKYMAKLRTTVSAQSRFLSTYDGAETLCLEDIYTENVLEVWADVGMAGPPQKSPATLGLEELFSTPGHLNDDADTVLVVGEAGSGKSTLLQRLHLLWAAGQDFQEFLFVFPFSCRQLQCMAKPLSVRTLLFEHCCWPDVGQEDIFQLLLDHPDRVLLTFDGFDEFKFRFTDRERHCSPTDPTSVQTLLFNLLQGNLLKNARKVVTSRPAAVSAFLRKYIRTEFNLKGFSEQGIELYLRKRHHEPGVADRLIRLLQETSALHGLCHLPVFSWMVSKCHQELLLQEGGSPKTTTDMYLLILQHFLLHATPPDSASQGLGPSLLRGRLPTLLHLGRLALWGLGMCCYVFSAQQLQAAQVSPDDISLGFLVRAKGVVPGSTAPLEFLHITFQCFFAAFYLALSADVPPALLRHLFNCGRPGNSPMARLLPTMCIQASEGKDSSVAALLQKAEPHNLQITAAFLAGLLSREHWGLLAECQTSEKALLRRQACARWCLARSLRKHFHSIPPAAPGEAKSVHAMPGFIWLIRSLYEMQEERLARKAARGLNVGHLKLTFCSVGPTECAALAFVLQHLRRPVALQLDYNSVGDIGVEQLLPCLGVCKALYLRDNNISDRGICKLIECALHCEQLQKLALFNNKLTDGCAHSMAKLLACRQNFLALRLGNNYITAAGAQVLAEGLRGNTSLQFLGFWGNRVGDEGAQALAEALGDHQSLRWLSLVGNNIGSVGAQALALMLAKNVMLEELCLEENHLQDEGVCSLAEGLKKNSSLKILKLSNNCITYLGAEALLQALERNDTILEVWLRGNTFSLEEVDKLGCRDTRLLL
# Cytochrome P450 2C9, sequence (P11712 whole entry): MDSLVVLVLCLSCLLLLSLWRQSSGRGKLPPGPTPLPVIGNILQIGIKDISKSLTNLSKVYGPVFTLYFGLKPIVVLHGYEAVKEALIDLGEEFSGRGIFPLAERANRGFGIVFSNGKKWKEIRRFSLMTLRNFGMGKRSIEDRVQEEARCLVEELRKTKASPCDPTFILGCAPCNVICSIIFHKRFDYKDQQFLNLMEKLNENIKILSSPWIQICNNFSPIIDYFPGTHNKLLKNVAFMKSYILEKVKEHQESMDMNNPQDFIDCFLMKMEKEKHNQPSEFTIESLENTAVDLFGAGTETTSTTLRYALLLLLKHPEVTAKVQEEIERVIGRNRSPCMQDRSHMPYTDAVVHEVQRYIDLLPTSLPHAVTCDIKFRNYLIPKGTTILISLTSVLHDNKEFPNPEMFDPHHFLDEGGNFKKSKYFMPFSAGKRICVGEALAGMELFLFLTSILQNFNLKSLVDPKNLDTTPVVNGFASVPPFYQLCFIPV
# Tumor necrosis factor, sequence (P01375 whole entry): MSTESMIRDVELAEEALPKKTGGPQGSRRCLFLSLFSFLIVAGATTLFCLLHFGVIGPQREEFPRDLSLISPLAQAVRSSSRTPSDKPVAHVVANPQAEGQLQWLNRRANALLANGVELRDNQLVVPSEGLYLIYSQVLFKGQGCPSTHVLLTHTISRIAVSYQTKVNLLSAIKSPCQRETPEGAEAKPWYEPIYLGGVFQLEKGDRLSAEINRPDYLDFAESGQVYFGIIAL
compound,measurement,setting,value
C/C(=C\c1ccc(N(C)C)cc1)[N+](=O)[O-],IC50,[1],0.653 µM (active)
same,AC50,Cytochrome P450 2C9,31.6 µM (inconclusive)
same,EC50,[2],4.26 µM (active)
same,AC50,[3],13.1 µM (active)
O=C1NC(=O)N(CCc2ccc(F)cc2)C(=O)/C1=C/C=C/c1ccccc1,EC50,[4],5.39 µM (inconclusive)
same,EC50,BJ [5],11.6 µM (inconclusive)
same,CC50,[6],16.8 µM (active)
same,AC50,[7],1.05 µM (active)
same,EC50,[2],39.3 µM (inactive)
same,EC50,BJ [8],5.32 µM (inconclusive)
same,EC50,BJ [9],> 150 µM (not active)
same,IC50,cells,48.4 µM (active)
same,CC50,[10],5.09 µM (active)
COc1ccc2nc(NC(=O)c3ccc(Br)s3)sc2c1,CC50,[11],> 100 µM (active)
same,IC50,Protein skinhead-1,> 100 µM (inactive)
CCCc1nc(SCC(=O)N2CCC(Cc3ccccc3)CC2)c2c(=O)n(C)c(=O)n(C)c2n1,IC50,[12],11.4 µM (active)
same,IC50,HEK293 [13],19.3 µM (active)
same,AC50,[14],> 52 µM (inactive)
same,AC50,[15],18.6 µM (active)
same,EC50,[16],33.7 µM (active)
same,EC50,[17],33.6 µM (active)
same,IC50,[18],12.2 µM (active)
same,AC50,[19],17.9 µM (active)
same,IC50,Tumor necrosis factor,11 µM (active)
same,EC50,[20],6.62 µM (active)
same,EC50,[21],6.8 µM (active)
same,EC50,HEK293 [22],5.46 µM (active)
same,IC50,HEK293 [23],5.22 µM (active)
same,IC50,HEK293 [24],> 20 µM (inactive)
same,IC50,HEK293 [25],8.67 µM (active)

# — ChEMBL document CHEMBL1201862, “PubChem BioAssay data set” (2004)
